Legend:
Prothrombin = Prothrombin (Homo sapiens, UniProt P00734); assay: Binding affinity towards thrombin
Serine protease 1 = Serine protease 1 (Homo sapiens, UniProt P07477); assay: Binding affinity towards trypsin
[1] = target: Tissue-type plasminogen activator (Homo sapiens, UniProt P00750); assay: Binding affinity against tissue-type plasminogen activator receptor
Plasminogen = Plasminogen (Homo sapiens, UniProt P00747); assay: Binding affinity towards Plasmin
Plasminogen, sequence (P00747 97-580 limits assumed): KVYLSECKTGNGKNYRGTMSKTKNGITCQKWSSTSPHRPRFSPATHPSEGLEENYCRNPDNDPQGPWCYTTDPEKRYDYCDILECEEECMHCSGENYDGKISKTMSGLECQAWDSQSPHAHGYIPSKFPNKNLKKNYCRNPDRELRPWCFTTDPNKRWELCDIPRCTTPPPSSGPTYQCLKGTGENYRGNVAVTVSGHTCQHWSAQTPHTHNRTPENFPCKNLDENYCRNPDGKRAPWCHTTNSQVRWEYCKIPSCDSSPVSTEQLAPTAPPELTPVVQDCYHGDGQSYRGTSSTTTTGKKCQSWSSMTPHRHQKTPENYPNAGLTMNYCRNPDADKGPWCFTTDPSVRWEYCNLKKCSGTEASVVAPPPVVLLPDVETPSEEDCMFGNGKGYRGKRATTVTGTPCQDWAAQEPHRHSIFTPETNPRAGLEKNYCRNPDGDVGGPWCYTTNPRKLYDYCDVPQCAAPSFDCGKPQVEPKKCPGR
Plasminogen, sequence (P00747 581-810 limits assumed): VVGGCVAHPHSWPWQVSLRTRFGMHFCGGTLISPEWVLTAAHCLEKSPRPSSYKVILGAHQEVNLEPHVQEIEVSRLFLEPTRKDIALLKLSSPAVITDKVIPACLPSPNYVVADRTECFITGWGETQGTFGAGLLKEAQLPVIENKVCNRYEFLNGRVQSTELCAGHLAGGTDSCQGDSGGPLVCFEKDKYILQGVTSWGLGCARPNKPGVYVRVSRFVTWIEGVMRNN

Tissue-type plasminogen activator, sequence (P00750 whole entry): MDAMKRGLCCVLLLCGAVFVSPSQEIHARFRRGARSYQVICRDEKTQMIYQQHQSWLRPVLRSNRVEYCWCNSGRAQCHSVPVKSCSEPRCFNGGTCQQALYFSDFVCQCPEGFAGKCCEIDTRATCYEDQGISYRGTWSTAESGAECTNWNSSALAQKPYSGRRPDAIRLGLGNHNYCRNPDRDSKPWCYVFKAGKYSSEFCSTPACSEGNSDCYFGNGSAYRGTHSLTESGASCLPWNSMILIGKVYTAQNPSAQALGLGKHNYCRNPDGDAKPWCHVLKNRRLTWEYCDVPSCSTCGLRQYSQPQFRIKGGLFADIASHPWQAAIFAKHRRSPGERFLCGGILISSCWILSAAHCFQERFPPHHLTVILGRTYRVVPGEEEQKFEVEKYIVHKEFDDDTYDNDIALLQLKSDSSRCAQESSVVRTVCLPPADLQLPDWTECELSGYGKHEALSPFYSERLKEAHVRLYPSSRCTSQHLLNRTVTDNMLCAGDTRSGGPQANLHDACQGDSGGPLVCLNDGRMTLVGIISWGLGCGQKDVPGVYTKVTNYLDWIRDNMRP
Serine protease 1, sequence (P07477 whole entry): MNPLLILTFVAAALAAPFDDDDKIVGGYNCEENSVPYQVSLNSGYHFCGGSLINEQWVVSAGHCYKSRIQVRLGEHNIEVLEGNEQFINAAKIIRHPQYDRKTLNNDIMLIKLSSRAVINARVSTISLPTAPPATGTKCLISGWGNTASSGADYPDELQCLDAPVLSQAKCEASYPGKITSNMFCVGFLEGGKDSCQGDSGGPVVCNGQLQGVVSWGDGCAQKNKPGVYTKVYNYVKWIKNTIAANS

Row | Ki (Prothrombin) [nM] | Ki (Serine protease 1) [µM] | Ki [1] [µM] | Ki (Plasminogen) [µM] | Structure (SMILES)
1 | 5 |  |  |  | CN[C@H](Cc1ccccc1)C(=O)N1CCC[C@H]1C(=O)NC[C@H]1CC[C@H](N)CC1
2 | 0.09 |  |  |  | CNC(=O)C(=O)[C@@H](NC(=O)[C@@H]1CCCN1C(=O)[C@@H](Cc1ccccc1)NC)[C@H]1CC[C@H](N)CC1
3 | 0.4 |  |  |  | NC1CCC(CNC(=O)[C@@H]2CCCN2C(=O)[C@@H](Cc2ccccc2)NS(=O)(=O)Cc2ccccc2)CC1 (stereo partly drawn)
4 | 0.1 |  |  |  | NC1CCC(CNC(=O)[C@@H]2CCCN2C(=O)[C@H](N)C(c2ccccc2)c2ccccc2)CC1 (stereo partly drawn)
5 | 0.0025 | 0.004 | 6700 | 0.49 | NC1CCC(CNC(=O)[C@@H]2CCCN2C(=O)C(NS(=O)(=O)Cc2ccccc2)C(c2ccccc2)c2ccccc2)CC1 (stereo partly drawn)

Reference: ChEMBL document CHEMBL1129964 (J Med Chem, 1997)
